Measurements taken from US7105663B2, “Derivatives of pyrimido[6,1-a]isoquinolin-4-one” (Rhinopharma Limited, priority 1999, dated 2006).
Blank lines part the entries; values can stand above or below the compound they belong to.

Assays:
[1] = test system: LPS induced TNF-α release from human monocytes; test: LPS induced TNF-α release from human monocytes; format: cell-based; conditions: Monocyte
[2] = test system: guinea-pig isolated trachea; test: Electrical-induced contraction of guinea-pig isolated trachea (superfused tracheal rings, electrical field stimulation); conditions: 10 μM
Description: Superfusion of guinea-pig tracheal rings was performed according to a previously described method (Coleman et al. 1996; Pulmonary Pharmacology, 9, 107–117). Briefly, guinea-pig tracheal preparations were cut into rings then opened by sectioning the ring opposite the smooth muscle and suspended between two platinum electrodes under 1 g tension. The tissues were superfased at a rate of 3.25 ml/min with Krebs-Henseleit solution at 37° C. containing the cyclooxygenase inhibitor, indomethacin (5 μM) and bubbled with 95% O2 and 5% CO2. Tracheal preparations were allowed to equilibrate for 40 min before commencement of electrical stimulation delivered as a 10 s train of square wave pulses at 3 Hz, 0.1 ms duration and 20V (approx. 400 mAmps) generated every 100 sec by means of physiological square wave-stimulator.
The compound of Example 1 was dissolved in DMSO containing Tween 80 (10%) and distilled water (0.01 M), which were then added to the organ bath to give a final concentration of 10 μM. The other compounds were prepared in DMSO and diluted in Krebs-Henseleit solution which yielded a final superfusion concentration of 0.05% DMSO, and superfused at a rate of 0.3 ml/min; contractile responses to electrical field stimulation was recorded on a Macintosh computer using MacLab software.

[3] = test system: recruitment of eosinophils to the lungs; test: Antigen induced eosinophilia in the ovalbumin sensitised guinea-pig; format: in vivo
Description: 3. […] Further experiments were carried out to characterise the duration of action in this model.

PDE4 (human neutrophil) = test: Inhibition of phosphodiesterase (PDE) type 4 isoenzyme; format: biochemical
[4] = Intravenous administration to urethane anaesthetised guinea-pigs, mean arterial blood pressure; format: in vivo, guinea-pig; conditions: intravenous 1 to 100 μg/kg, evidence that the compound had come out of solution
Description: 2. […] The compound was dissolved in DMSO then diluted with saline (there was evidence that the compound had come out of solution).

[5] = test system: histamine induced bronchospasm; test: Histamine induced bronchospasm in guinea-pigs after dry powder exposure; format: in vivo, guinea-pig; conditions: dry powder 2.5 and 25% in lactose, over a 5.5 hour period
Description: 1. The compound of Example 1, 9,10-Dimethoxy-2-(2,4,6-trimethylphenylimino)-3-(N-carbamoyl-2-aminoethyl)-3,4,6,7-tetrahydro-2H-pyrimido[6,1-a]isoquinolin-4-one, was tested in a model of histamine induced bronchospasm. Conscious guinea-pigs were exposed to dry powder (micronised) compound. The drug was blended with lactose so that the final concentration was 0.25, 2.5 and 25%. At various times after exposure to drug the animals were anaesthetised and challenged with varying doses of histamine. Total airway resistance and mean arterial blood pressure were recorded.

PDE3 (human platelet) = molecular target: T1, PDE3 (human platelet) (Homo sapiens, UniProt Q14432); test: Inhibition of phosphodiesterase (PDE) type 3 isoenzyme; format: biochemical
T1 construct: (human platelet); from tissue; host or cells: human platelets
T1 sequence (Q14432 whole entry): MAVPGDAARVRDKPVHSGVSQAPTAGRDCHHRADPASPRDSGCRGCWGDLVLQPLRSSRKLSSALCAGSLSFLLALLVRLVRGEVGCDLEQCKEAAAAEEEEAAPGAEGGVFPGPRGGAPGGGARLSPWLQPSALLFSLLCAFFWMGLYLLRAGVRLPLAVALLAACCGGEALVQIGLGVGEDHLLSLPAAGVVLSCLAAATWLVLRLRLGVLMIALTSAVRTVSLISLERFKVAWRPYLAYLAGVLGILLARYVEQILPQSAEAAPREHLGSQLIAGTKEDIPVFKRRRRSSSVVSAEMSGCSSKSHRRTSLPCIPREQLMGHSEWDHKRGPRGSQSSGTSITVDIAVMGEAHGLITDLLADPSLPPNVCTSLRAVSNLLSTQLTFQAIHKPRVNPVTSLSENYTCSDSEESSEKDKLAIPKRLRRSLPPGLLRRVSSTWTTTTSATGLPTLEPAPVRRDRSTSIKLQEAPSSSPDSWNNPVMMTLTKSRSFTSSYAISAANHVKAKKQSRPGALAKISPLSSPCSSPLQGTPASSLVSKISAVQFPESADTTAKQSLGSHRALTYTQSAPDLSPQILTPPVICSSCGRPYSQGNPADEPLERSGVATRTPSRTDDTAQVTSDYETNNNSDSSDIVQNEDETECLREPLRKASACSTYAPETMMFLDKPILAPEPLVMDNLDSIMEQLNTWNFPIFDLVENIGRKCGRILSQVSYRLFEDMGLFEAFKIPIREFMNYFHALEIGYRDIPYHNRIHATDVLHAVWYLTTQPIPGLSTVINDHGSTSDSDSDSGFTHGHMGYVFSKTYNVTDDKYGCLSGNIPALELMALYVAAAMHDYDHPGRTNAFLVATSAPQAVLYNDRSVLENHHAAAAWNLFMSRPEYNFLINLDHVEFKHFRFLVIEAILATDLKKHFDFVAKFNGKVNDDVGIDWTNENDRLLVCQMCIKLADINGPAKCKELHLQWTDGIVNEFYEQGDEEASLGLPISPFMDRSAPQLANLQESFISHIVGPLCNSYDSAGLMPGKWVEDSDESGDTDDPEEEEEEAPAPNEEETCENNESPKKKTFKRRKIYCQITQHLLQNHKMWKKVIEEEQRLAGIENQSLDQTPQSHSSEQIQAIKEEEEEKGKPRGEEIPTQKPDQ

[6] = test system: human mononuclear cells stimulated by PHA; test: Proliferation of human mononuclear cells stimulated by PHA ([3H]-thymidine); format: cell-based
Description: Normal healthy volunteers underwent phlebotomy and 25 ml of blood was collected. Mononuclear cells were separated and purified according to the method of Banner et al (Banner et al Br. J. Pharmacol. 116 3169–3174 (1995)). Human peripheral mononuclear cells (100,000 per well) were stimulated for 24 h with phytohaemagglutinin (PHA, 2 μ/ml) in the absence or presence of the compound of Example 1 (0.001–100 μM) at 37° C. in a 95% air, 5% CO2 atmosphere. Twenty four hours later, [3H]-thymidine (0.1 μCi) was added to each well and the cells were incubated for a further 24 h period. Cells were then harvested onto glass fibre filters using a cell harvester (ICN Flow, Buckinghamshire) and counted in a scintillation counter.

- IC50 ([1]; n = 6): 92 nM
SMILES: COc1ccc([C@H](Cc2ccncc2)c2ccccc2)cc1OC1CCCC1 [CDP 840]

- IC50 ([1]; n = 6): 7.5 nM
- IC50 (PDE4 (human neutrophil)): 1480 nM
- IC50 (PDE3 (human platelet)): 0.43 nM
SMILES: COc1cc2c(cc1OC)-c1c/c(=N\c3c(C)cc(C)cc3C)n(CCNC(N)=O)c(=O)n1CC2 [Example 1, 9,10-Dimethoxy-2-(2,4,6-trimethylphenylimino)3-(N-carbamoyl-2-aminoethyl)-3,4,6,7-tetrahydro-2H-pyrimido[6,1-a]isoquinolin-4-one]
- effect on contractile responses (electrical-induced contraction of guinea-pig isolated trachea) [2]: inhibit the contractile responses with a long duration of action
- recruitment of eosinophils to the lungs following antigen challenge ([3]; 10 mg/kg orally 1 hour prior to antigen challenge): significantly inhibited
- recruitment of eosinophils to the lungs following antigen challenge ([3]; dry powder (25%) 1.5 hours prior to antigen challenge, measured 24 hours after challenge): significantly inhibited
- recruitment of eosinophils to the lungs following antigen challenge ([3]; dry powder (25%) 5.5 hours before antigen challenge): failed to significantly inhibit
- mean arterial blood pressure [4]: dose dependant reduction
- protection against histamine induced bronchospasm ([5]; conscious guinea-pigs): significant protection
- mean blood pressure ([5]; guinea-pigs): reduced mean blood pressure
- proliferation of human mononuclear cells stimulated by PHA ([6]; 0.001–100 μM): significantly inhibited
- IC50 ([6]; Homo sapiens, 95% confidence limits in brackets, n=6, read-out: IC50 against proliferation of human mononuclear cells stimulated with PHA): 460 nM

SMILES: COc1cc2c(cc1OC)-c1c/c(=N\c3c(C)cc(C)cc3C)n(CCN/C(N)=N/[N+](=O)[O-])c(=O)n1CC2 [Example 8, 9,10-Dimethoxy-3-[N-(N′-nitro)-2-guanidinoethyl]-2-(2,4,6-trimethylphenylimino)-3,4,6,7-tetrahydro-2H-pyrimido[6,1-a]isoquinolin-4-one]
- effect on contractile responses (electrical-induced contraction of guinea-pig isolated trachea) [2]: inhibit the contractile responses with a long duration of action

SMILES: COc1cc2c(cc1OC)-c1c/c(=N\c3c(C)cc(C)cc3C)n(CCNC(=O)NC3CCCCC3)c(=O)n1CC2 [Example 9]
- effect on contractile responses (electrical-induced contraction of guinea-pig isolated trachea) [2]: inhibit the contractile responses with a long duration of action

SMILES: COc1cc2c(cc1OC)-c1c/c(=N\c3ccccc3C)n(CCNC(N)=O)c(=O)n1CC2 [Example 10, 3-(N-Carbamoyl-2-aminoethyl)-9,10-dimethoxy-2-(2-methylphenylimino)-3,4,6,7-tetrahydro-2H-pyrimido[6,1-a]isoquinolin-4-one]
- effect on contractile responses (electrical-induced contraction of guinea-pig isolated trachea) [2]: inhibit the contractile responses with a long duration of action

SMILES: COc1cc2c(cc1OC)-c1c/c(=N\c3c(C(C)C)cccc3C(C)C)n(CCNC(N)=O)c(=O)n1CC2 [Example 11]
- effect on contractile responses (electrical-induced contraction of guinea-pig isolated trachea) [2]: inhibit the contractile responses with a long duration of action

SMILES: CN/C(=N\C#N)NCCn1c(=O)n2c(c/c1=N\c1c(C)cc(C)cc1C)-c1cc(OC)c(OC)cc1CC2 [Example 13, 3-[N-(N′-Cyano-N″-methyl)-2-guanidinoethyl]-9,10-dimethoxy-2-(2,4,6-trimethyl-phenylimino)-3,4,6,7-tetrahydro-2H-pyrimido[6,1-a]isoquinolin-4-one]
- effect on contractile responses (electrical-induced contraction of guinea-pig isolated trachea) [2]: inhibit the contractile responses with a long duration of action

- IC50 [1]: > 100000 nM
SMILES: CN/C(=N\c1ccc(C2=NNC(=O)CC2C)cc1)NC#N (stereo not shown) [Siguazodan]
